The source of these data is ChEMBL document CHEMBL4507281, “Data for DCP probe BI-4394” (2021).

What all share (conditions): Compound concentration 10.0 uM
In test [1] the target is D(1A) dopamine receptor (Homo sapiens) (UniProt P21728).
The target in test [2] is Beta-1 adrenergic receptor (Homo sapiens) (UniProt P08588).
Test [3] has as its target Tyrosine-protein kinase ABL1 (Homo sapiens) (UniProt P00519).
Test [4] concerns the target AMP-activated protein kinase (AMPK) alpha-1/beta-1/gamma-1 (Homo sapiens) (UniProt P54619+Q9Y478+Q13131).
Test [5] deals with Tyrosine-protein kinase BTK (Homo sapiens) (UniProt Q06187).
The target of test [6] is Cyclin-dependent kinase 1/cyclin B (Homo sapiens) (UniProt P06493+P14635+Q8WWL7+O95067).
The target in test [7] is T1, Serine/threonine-protein kinase Chk1 (Homo sapiens) (UniProt O14757).
T1 sequence (whole entry): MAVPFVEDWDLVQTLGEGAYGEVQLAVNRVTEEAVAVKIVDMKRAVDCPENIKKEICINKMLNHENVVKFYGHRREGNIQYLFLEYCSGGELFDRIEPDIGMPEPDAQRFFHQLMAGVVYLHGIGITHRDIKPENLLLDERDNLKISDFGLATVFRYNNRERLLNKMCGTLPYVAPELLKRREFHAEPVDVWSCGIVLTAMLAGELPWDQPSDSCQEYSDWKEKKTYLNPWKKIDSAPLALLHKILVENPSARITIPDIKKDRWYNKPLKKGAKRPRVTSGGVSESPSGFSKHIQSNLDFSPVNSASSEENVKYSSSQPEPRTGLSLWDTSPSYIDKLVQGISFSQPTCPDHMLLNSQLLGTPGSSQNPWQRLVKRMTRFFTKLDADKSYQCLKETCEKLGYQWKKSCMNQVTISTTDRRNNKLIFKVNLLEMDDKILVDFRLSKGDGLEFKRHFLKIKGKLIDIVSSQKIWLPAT

In test [8] the target is Casein kinase I isoform gamma-2 (Homo sapiens) (UniProt P78368).
The target in test [9] is Casein kinase II subunit alpha (Homo sapiens) (UniProt P68400).
The target of test [10] is Receptor tyrosine-protein kinase erbB-2 (Homo sapiens) (UniProt P04626).
The target of test [11] is Glycogen synthase kinase-3 beta (Homo sapiens) (UniProt P49841).
Test [12] concerns the target Mitogen-activated protein kinase kinase kinase 9 (Homo sapiens) (UniProt P80192).
The target of test [13] is Mitogen-activated protein kinase kinase kinase kinase 4 (Homo sapiens) (UniProt O95819).
For test [14], the target named is Mitogen-activated protein kinase 8 (Homo sapiens) (UniProt P45983).
Test [15] concerns the target Hepatocyte growth factor receptor (Homo sapiens) (UniProt P08581).
For test [16], the target named is Serine/threonine-protein kinase PAK 4 (Homo sapiens) (UniProt O96013).
For test [17], the target named is Platelet-derived growth factor receptor beta (Homo sapiens) (UniProt P09619).
Test [18] concerns the target PI3-kinase p110-alpha/p85-alpha (Homo sapiens) (UniProt P27986+P42336).
For test [19], the target named is Serine/threonine-protein kinase pim-1 (Homo sapiens) (UniProt P11309).
In test [20] the target is Serine/threonine-protein kinase PLK1 (Homo sapiens) (UniProt P53350).
Test [21] addresses Protein kinase C beta type (Homo sapiens) (UniProt P05771).
Test [22] deals with Proto-oncogene tyrosine-protein kinase receptor Ret (Homo sapiens) (UniProt P07949).
Test [23] concerns the target Rho-associated protein kinase 2 (Homo sapiens) (UniProt O75116).
Test [24] deals with Proto-oncogene tyrosine-protein kinase Src (Homo sapiens) (UniProt P12931).
The target of test [25] is T2, Aurora kinase A (Homo sapiens) (UniProt O14965).
T2 sequence (whole entry): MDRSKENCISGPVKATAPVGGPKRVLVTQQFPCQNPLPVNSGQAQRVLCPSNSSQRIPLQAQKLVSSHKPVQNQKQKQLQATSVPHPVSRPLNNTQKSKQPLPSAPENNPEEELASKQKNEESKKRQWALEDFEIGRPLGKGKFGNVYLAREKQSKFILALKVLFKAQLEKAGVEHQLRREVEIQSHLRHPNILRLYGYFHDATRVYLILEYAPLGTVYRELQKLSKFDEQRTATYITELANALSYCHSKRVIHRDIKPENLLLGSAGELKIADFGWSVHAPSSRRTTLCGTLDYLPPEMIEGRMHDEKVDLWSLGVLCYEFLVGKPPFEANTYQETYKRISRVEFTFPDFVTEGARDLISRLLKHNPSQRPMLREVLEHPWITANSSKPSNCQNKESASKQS

Test [26] deals with Tyrosine-protein kinase SYK (Homo sapiens) (UniProt P43405).
Test [27] has as its target 5-hydroxytryptamine receptor 1A (Homo sapiens) (UniProt P08908).
The target in test [28] is Histamine H2 receptor (Homo sapiens) (UniProt P25021).
Histamine H2 receptor (Homo sapiens), sequence (P25021 whole entry): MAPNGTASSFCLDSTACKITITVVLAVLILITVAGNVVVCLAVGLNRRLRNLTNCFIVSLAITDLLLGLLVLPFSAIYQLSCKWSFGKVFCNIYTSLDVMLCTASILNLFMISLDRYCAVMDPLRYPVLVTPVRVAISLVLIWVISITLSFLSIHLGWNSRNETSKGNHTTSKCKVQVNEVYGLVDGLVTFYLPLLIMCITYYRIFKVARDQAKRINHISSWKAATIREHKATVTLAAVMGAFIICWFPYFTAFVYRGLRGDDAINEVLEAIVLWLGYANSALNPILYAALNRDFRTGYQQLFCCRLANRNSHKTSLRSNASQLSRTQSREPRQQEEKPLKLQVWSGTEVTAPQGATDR

Glycogen synthase kinase-3 beta (Homo sapiens), sequence (P49841 whole entry, looked up): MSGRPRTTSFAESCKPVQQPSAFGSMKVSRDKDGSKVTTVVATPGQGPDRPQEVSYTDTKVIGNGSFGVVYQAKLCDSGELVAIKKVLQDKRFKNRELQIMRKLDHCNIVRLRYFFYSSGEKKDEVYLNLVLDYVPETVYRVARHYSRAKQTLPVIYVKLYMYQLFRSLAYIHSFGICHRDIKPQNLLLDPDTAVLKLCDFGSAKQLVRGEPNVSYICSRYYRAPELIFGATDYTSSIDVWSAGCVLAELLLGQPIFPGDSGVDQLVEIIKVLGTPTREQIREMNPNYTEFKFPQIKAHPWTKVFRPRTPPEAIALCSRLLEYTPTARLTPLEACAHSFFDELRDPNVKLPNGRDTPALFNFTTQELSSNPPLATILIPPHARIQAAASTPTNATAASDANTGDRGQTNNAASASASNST
AMP-activated protein kinase (AMPK) alpha-1/beta-1/gamma-1 (Homo sapiens), sequence (P54619 whole entry): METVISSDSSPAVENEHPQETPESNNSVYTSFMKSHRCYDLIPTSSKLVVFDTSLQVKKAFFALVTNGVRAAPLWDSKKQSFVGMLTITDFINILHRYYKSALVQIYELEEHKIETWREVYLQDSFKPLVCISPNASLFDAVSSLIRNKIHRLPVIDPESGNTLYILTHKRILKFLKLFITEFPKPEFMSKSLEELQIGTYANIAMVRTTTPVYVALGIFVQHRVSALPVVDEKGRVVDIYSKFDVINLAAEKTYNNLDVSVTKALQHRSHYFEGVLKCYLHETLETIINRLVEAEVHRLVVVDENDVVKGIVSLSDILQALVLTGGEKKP
AMP-activated protein kinase (AMPK) alpha-1/beta-1/gamma-1 (Homo sapiens), sequence (Q13131 whole entry partner): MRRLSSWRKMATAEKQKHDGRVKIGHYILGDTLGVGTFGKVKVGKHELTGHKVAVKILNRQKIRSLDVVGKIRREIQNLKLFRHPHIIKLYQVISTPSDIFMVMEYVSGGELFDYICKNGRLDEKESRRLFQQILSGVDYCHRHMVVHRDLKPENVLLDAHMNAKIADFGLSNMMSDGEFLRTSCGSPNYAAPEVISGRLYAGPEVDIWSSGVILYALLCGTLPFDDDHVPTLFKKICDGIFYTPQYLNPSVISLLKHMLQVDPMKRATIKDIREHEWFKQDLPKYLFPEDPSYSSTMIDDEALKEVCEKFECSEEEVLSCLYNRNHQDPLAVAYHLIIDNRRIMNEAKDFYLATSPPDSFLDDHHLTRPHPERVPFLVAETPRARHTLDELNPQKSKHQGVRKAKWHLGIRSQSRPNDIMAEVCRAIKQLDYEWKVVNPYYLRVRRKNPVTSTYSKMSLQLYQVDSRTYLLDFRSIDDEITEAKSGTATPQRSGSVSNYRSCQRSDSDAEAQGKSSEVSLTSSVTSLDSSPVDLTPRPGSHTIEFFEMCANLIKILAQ
AMP-activated protein kinase (AMPK) alpha-1/beta-1/gamma-1 (Homo sapiens), sequence (Q9Y478 2-270 partner limits assumed): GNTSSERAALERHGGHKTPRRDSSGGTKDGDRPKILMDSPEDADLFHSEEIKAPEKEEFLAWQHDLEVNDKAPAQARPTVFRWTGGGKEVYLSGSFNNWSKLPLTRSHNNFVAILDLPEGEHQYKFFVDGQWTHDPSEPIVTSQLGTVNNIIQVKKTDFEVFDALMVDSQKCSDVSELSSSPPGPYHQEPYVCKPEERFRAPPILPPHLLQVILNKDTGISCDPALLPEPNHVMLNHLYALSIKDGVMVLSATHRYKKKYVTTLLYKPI
Serine/threonine-protein kinase PLK1 (Homo sapiens), sequence (P53350 whole entry): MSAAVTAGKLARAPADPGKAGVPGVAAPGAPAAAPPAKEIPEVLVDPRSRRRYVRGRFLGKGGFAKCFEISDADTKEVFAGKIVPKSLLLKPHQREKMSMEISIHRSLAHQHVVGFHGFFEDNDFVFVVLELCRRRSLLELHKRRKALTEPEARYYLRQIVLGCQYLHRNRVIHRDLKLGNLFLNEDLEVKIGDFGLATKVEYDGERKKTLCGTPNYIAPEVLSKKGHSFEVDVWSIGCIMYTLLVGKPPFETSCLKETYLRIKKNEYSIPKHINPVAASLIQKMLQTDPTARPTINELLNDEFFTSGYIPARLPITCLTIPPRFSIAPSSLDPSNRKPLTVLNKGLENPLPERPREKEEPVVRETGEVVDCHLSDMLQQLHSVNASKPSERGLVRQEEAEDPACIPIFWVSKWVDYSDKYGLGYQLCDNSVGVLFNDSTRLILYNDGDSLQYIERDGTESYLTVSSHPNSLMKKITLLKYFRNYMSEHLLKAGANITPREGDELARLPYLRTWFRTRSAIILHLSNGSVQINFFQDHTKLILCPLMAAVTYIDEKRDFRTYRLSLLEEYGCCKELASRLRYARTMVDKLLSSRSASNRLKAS
Tyrosine-protein kinase BTK (Homo sapiens), sequence (Q06187 whole entry): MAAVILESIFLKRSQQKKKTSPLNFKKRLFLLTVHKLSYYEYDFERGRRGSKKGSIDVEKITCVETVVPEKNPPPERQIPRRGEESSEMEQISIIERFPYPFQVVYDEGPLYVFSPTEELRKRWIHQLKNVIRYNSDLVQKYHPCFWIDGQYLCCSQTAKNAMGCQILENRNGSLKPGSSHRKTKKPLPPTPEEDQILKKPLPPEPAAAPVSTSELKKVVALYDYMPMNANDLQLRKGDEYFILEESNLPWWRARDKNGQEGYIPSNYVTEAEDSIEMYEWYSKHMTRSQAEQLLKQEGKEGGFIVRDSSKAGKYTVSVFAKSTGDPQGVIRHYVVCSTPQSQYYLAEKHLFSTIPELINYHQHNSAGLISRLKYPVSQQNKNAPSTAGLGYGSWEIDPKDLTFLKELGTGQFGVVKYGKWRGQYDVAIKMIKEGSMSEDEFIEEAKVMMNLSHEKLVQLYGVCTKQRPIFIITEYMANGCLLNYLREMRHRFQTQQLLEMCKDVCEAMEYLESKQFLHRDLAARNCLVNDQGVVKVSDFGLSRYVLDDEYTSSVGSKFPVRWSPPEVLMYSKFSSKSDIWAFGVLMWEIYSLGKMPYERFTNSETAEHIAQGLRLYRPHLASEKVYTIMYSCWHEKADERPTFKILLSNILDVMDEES
Serine/threonine-protein kinase PAK 4 (Homo sapiens), sequence (O96013 whole entry, looked up): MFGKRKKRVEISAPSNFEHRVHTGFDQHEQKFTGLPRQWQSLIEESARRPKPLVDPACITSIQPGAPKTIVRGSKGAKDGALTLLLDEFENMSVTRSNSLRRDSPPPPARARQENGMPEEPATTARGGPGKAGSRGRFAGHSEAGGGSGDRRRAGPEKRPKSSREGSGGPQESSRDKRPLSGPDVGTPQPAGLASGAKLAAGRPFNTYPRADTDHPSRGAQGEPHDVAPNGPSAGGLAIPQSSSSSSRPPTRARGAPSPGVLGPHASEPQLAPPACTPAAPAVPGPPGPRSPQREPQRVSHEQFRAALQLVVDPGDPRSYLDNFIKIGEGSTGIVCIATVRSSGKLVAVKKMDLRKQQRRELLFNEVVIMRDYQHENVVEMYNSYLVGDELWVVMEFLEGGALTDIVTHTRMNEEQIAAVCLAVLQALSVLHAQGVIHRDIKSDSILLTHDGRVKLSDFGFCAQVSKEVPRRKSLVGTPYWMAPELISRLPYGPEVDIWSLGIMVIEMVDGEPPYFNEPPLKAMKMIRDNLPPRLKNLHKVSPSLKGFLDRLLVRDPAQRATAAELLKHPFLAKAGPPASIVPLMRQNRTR
5-hydroxytryptamine receptor 1A (Homo sapiens), sequence (P08908 whole entry): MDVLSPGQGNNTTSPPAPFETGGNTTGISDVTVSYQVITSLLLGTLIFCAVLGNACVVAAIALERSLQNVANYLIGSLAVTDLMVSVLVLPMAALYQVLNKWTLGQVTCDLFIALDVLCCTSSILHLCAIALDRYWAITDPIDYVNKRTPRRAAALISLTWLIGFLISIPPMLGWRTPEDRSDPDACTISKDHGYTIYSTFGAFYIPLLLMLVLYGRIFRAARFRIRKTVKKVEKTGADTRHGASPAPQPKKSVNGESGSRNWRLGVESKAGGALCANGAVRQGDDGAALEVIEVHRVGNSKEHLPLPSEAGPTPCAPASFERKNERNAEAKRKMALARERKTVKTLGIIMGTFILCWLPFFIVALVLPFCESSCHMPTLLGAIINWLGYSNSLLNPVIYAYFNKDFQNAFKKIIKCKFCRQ
Proto-oncogene tyrosine-protein kinase Src (Homo sapiens), sequence (P12931 2-536 limits assumed): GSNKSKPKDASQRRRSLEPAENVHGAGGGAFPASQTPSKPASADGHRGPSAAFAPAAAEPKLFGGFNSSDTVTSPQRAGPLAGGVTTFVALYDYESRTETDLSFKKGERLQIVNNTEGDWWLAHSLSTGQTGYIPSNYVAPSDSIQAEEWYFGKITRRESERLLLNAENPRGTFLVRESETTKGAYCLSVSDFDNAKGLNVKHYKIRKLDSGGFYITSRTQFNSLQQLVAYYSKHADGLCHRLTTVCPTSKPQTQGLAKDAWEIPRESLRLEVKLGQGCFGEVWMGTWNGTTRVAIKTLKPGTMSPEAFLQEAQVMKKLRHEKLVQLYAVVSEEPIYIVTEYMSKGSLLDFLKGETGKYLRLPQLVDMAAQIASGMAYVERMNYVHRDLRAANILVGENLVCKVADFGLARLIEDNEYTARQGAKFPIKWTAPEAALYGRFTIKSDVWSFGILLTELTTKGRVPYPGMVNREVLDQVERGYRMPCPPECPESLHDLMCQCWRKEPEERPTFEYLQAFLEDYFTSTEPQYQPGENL

Consider `CCOC(=O)c1cc2cc(-c3cc(C(=O)NCc4ccc(C(=O)O)cc4)nn3C)ccc2[nH]1` [BI 4394], for which the values for the inhibition in [1] and in [2] were -5.02% and -5.04%, respectively. The residual activity was 48% in [3]; 8% in test [4]; 68% in test [5]; 88% in [6]; 94% in test [7]; 61% in [8]. Also, the residual activity in test [9] was 89%; in test [10] it was 87%; in [11] it was 6%; in test [12], 93%; in [13], 32%; in test [14] it was 87%. For the same molecule, the residual activity was 43% in [15]; 75% in [16]; 96% in test [17]; 133% in test [18]; 14% in test [19]; 73% in test [20]. In addition, the residual activity in test [21] is 97%; in [22] it was 64%; in test [23], 56%; in test [24], 25%; in test [25] it was -1%; in test [26], 56%.

In the case of `Cn1nc(C(=O)NCc2ccc(C(=O)O)cc2)cc1-c1ccc2[nH]ccc2c1` [BI 4395], the inhibition (commonly the drop in the measured response relative to a control, in per cent) is 22.7% in test [27] and 8.57% in [28].
